Measured values reported in patent publication US10357491B2, “Method of treating a brain tumor” (BeyondSpring Pharmaceuticals, Inc., priority 2015, dated 2019).

Columns and labels:
[1] = tested on: PDGF-induced gliomas that expressed G12D mutant KRAS; assay: Survival of mice with PDGF-induced gliomas expressing G12D mutant KRAS treated with Plinabulin plus TMZ plus radiation; format: in vivo; settings: Plinabulin 7.5 mg/kg i.p. twice a week for 10 weeks plus TMZ plus radiation 10gy x1; p=0.0149
Description: Mice with PDGF-induced gliomas that expressed G12D mutant KRAS were prepared using the procedures according to Example 1 and used in this experiment. 4-6 week old nestin-tv-a/ink4a-arf−/− mice were anesthetized with Isoflurane and injected with Df-1 cells transfected RCAS-PDGF-B-HA, RCAS-KRAS. Mice were injected with one microliter of a 1:1 mixture of 2×10^5 RCAS-PDGF-B-HA/RCAS-KRAS using a stereotactic frame via a 26-gauge needle attached to a Hamilton syringe. Cells were injected into the right frontal cortex, coordinates bregma 1.75 mm, Lat −0.5 mm, and a depth of 2 mm.
The mice were entered into two study groups. One group was treated with the combination of temozolomide (TMZ), Radiation and Plinabulin: radiation was given at 10gy×1, TMZ and Plinabulin 7.5 mg/kg in Plinabulin diluent was administered intraperitoneally twice a week on Monday and Thursday for 10 weeks. The other group, the control group, was treated with the combination of TMZ and radiation: radiation was given at 10gy×1, TMZ was administered intraperitoneally twice a week on Monday and Thursday for 10 weeks. the mice were monitored for lethargy, hunched posture, appetite loss, outward signs of tumor growth, agitation, weight-loss and overall failure to thrive. […]

[2] = tested on: PDGF-induced gliomas that expressed G12D mutant KRAS; assay: Survival of mice with PDGF-induced gliomas expressing G12D mutant KRAS treated with Plinabulin; format: in vivo; settings: Plinabulin 7.5 mg/kg i.p. twice per week for 10 weeks; control: Plinabulin diluent only; p=0.001
Text: Mice with PDGF-induced gliomas using RCAS/tv-a were generated. The mice were transgenic for expression of the RCAS receptor (tv-a) from the nestin promoter and having a background of ink4a/arf−/− and lox-stop-lox luciferase, were infected with RCAS-PDGF, or the combination of RCAS-PDGF and RCAS-KRAS that expressed G12D mutant KRAS. The resultant tumors occurred within the first 4-5 weeks in this background for PDGF alone, and about a week shorter for the tumors arising from the combination of PDGF and RCAS. The tumors had the histological characteristics of GBM and were identified by symptoms of lethargy and poor grooming, MRI scans using a T2 weighted sequence, or bioluminescence imaging with an IVIS system. For radiation therapy, mice were treated with 10Gy per day cranially for a single dose.
Plinabulin was tested on mice with PDGF-induced gliomas that expressed G12D mutant KRAS. 4-6 week old nestin-tv-a/ink4a-arf−/− mice were anesthetized with Isoflurane and injected with Df-1 cells transfected RCAS-PDGF-B-HA, RCAS-KRAS. Mice were injected with one microliter of a 1:1 mixture of 2×10^5 RCAS-PDGF-B-HA/RCAS-KRAS using a stereotactic frame via a 26-gauge needle attached to a Hamilton syringe. […] The mice were monitored for lethargy, hunched posture, appetite loss, outward signs of tumor growth, agitation, weight-loss and overall failure to thrive. […]

## CC(C)(C)c1[nH]cnc1/C=c1\[nH]c(=O)/c(=C/c2ccccc2)[nH]c1=O [Plinabulin, (3Z,6Z)-3-Benzylidene-6-{[5-(2-methyl-2-propanyl)-1H-imidazol-4-yl]methylene}-2,5-piperazinedione]
[1]
  survival rate vs control group that received TMZ plus radiation (FIG. 4): significantly better survival rate
[2]
  survival rate vs control group (FIG. 3): significantly better survival rate
